Values quoted from earlier work as cited in patent publication US6703390B2, “Sulfur containing dihydrophthalazine antagonists of excitatory amino acid receptors” (Transgenomic, Inc., priority 2000, dated 2004).
Where two headings read alike, the source gives them in different places.

Tests used:
[1] = tested on: common carotid arteries model of global ischemia; conditions: compared with the competitive antagonist NBQX
[2] = tested on: middle cerebral artery occlusion (MCAO) model of ischemia

CC1=NN=C(c2ccc(N)cc2)c2cc3c(cc2C1)OCO3 [GYKI 52466]
efficacy in global ischemia model [1]: as effective as the glutamate site competitive antagonist NBQX
reduced cortical infarct volumes ([2]; given continuously for 2 hours just after occlusion): 68%
reduced cortical infarct volumes ([2]; given delayed for one hour after occlusion): 48%
efficacy in MCAO model of ischemia ([2]; given either continuously for 2 hours just after occlusion or delayed for one hour): effective
